The target of the test is T1, trypsin (from bovine pancreas) (Bos taurus, UniProt P00760).
T1 construct: trypsin (from bovine pancreas, 8,600 units/mg solid); from tissue; host or cells: bovine pancreas
T1 sequence (P00760 24-246): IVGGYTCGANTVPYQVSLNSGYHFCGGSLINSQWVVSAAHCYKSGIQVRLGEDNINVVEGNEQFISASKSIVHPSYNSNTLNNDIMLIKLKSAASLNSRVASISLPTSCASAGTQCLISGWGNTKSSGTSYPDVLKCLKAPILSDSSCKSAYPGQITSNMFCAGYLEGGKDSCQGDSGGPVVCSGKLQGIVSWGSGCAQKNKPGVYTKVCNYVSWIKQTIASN
Nature of the test: Trypsin inhibition assay. It counts as biochemical. To be noted: trypsin concentration of 193 nM; substrate N-alpha-benzoyl-DL-arginine-p-nitroanilide; read-out: IC50, trypsin inhibiting activity. How it is done:
The assay was performed in a 96-well assay plate, 15 μl trypsin (from bovine pancreas, 8,600 units/mg solid) solution (0.05 mg/ml 0.02 M HCl), 50 μl peptide solution (1 to 3 mM in water), and 100 μl 0.1 M Tris-buffer containing 25 mM CaCl2 (pH 7.8) were mixed in the wells of the assay plate. After incubation for 30 minutes, 100 μl substrate solution (N^α -benzoyl-DL-arginine-p-nitroanilide, 2.3 mM in water) was added. After 30 minutes, absorbances were read at 405 nm using a Titertek multichannel photometer, and expressed as a percentage of the control (well without peptide). The values obtained with serial dilutions of the peptide solutions were used to determine the IC50 values (concentration neccessary for 50% inhibition).

Square brackets hold non-standard residues; d marks the D form. Peptide text beside a SMILES is read from it.

The IC50 is the concentration that gives 50% inhibition. Consider `CC(=O)N[C@H](CCCNC(=N)N)C(=O)N[C@H](Cc1ccc(O)cc1)C(=O)N[C@H](CCCNC(=N)N)C(=O)N1CCC[C@@H]1C(=O)N[C@H](Cc1c[nH]c2ccccc12)C(=O)N[C@@H](C(N)=O)C(C)C` [Ac-ryrpwv-NH2] (Ac-[dR][dY][dR][dP][dW][dV]-NH2), for which the IC50 was found to be 131 µM.
The result for `CC(=O)N[C@H](CCCNC(=N)N)C(=O)N[C@H](Cc1ccc(O)cc1)C(=O)N[C@H](CCCNC(=N)N)C(=O)N1CCC[C@@H]1C(=O)N[C@H](Cc1c[nH]c2ccccc12)C(=O)N[C@H](Cc1c[nH]c2ccccc12)C(N)=O` [Ac-ryrpww-NH2] (Ac-[dR][dY][dR][dP][dW][dW]-NH2) reads 125 µM; that for `CC(=O)N[C@H](CCCNC(=N)N)C(=O)N[C@H](Cc1ccc(O)cc1)C(=O)N[C@H](CCCNC(=N)N)C(=O)N1CCC[C@@H]1C(=O)N[C@H](Cc1c[nH]c2ccccc12)C(=O)N[C@@H](C(N)=O)[C@H](C)O` [Ac-ryrpwt-NH2] (Ac-[dR][dY][dR][dP][dW][dT]-NH2), 142 µM; that for `CC(=O)N[C@H](CCCNC(=N)N)C(=O)N[C@H](Cc1ccc(O)cc1)C(=O)N[C@H](CCCNC(=N)N)C(=O)N1CCC[C@@H]1C(=O)N[C@H](Cc1c[nH]c2ccccc12)C(=O)N1CCC[C@@H]1C(N)=O` [Ac-ryrpwp-NH2] (Ac-[dR][dY][dR][dP][dW][dP]-NH2), 62 µM.
Turning to `CC(=O)N[C@H](CCCNC(=N)N)C(=O)N[C@H](Cc1ccc(O)cc1)C(=O)N[C@H](CCCNC(=N)N)C(=O)N1CCC[C@@H]1C(=O)N[C@H](Cc1c[nH]c2ccccc12)C(=O)N[C@H](CS)C(N)=O` [Ac-ryrpwc-NH2] (Ac-[dR][dY][dR][dP][dW][dC]-NH2), the IC50 came to 135 µM.
